Read-outs that look alike come from different tables or passages of the source. Starred links: 1 amine or outer side, 2 acyl side, 3 side chain; linkers in the order of their positions; H or OH if unused. Positions of bridges follow the written chain, without caps; N, C: chain ends. Non-standard residues stand in square brackets, D forms with d. Residues, ends and D or L forms follow the SMILES beside them. *: point of attachment. NH(CH2)3NHDOTA = O=C(O)CN1CCN(CC(=O)O)CCN(CC(=O)NCCCN*)CCN(CC(=O)O)CC1; X3 = O=C(O)CN1CCN(CC(=O)O)CCN(CC(=O)NCCCOCCOCCOCCCN*)CCN(CC(=O)O)CC1; NH(1-deoxy-D-glucityl) = OC[C@@H](O)[C@@H](O)[C@H](O)[C@@H](O)CN*; DOTA = O=C(O)CN1CCN(CC(=O)O)CCN(CC(=O)*)CCN(CC(=O)O)CC1; Phe(3,4-Cl2) = N[C@@H](Cc1ccc(Cl)c(Cl)c1)C(=O)O; mXylylene = c1cc(C[*:1])cc(C[*:2])c1; Orn(Me2) = CN(C)CCC[C@H](N)C(=O)O; X2 = O=C(CN1CCC(N[*:1])CC1)[*:2]; tBuAla = CC(C)(C)C[C@H](N)C(=O)O; Suc = O=C(CCC(=O)[*:2])[*:1]; Propanoyl(3-OH) = O=C(CCO)*; hSer = N[C@@H](CCO)C(=O)O; Nle = CCCC[C@H](N)C(=O)O; Bn = c1ccc(C*)cc1
What was measured:
[1] = target: T1, CAIX-expressing human HT-29 colorectal cancer cells (Homo sapiens, UniProt Q16790); assay: FACS binding assay (IC50 determination, competition with tracer 3BP-2776 or 3BP-4149); details: 4° C., 1 hour, read-out: pIC50 category (activity) (converted)
T1 construct: CAIX-expressing human HT-29 colorectal cancer cells; host or cells: HT-29 human colorectal cancer cells
Outline: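 HT-29 cells in FACS buffer (PBS, 1% FCS) at 500.000 cells/ml were exposed to compounds competing with a labelled tracer, with biotinylated compounds detected by 1 μg/mL APC-streptavidin for 30 min on ice. APC/Cy5 median fluorescence was read by flow cytometry and IC50 derived by 4PL fit.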

[2] = target: T2, human carbonic anhydrase IX (hCAIX-Fc) (Homo sapiens, UniProt Q16790); assay: Surface plasmon resonance assay with hCAIX-Fc; assay type: binding; details: 25° C.; for t1/2 category (activity): SPR dissociation half-life, hCAIX-Fc; for Kd: SPR, hCAIX-Fc captured, read-out: pKD category (activity) (converted)
T2 construct: purchased SinoBliological (Sino Biological) 10107-H02H

[3] = Plasma stability assay, mouse plasma; details: mouse plasma, 37°C, 24 h
[4] = FACS competition on HT-29 cells, Tracer ID 3BP-2776 (10 nM, biotin-labeled)
[5] = FACS binding assay, HT-29 cells, competition with tracer 3BP-2776 (10 nM, biotin-labeled)

Compound | IC50 [1, 4] [nM] | t1/2 category (activity) [2] | Kd [2] [nM] | % intact compound remaining (incubation time) [3] [%] | IC50 [1, 5] [nM]
CC(C)C[C@@H]1NC(=O)[C@H](Cc2c[nH]c3ccccc23)NC(=O)[C@H](CC(=O)O)NC(=O)[C@H]2CCCN2C(=O)[C@H](CCC(=O)O)NC(=O)[C@@H](NC(=O)[C@H](Cc2ccc(O)cc2)NC(=O)CCO)CSCc2cccc(c2)CSC[C@@H](C(N)=O)NC(=O)[C@H](CCC(=O)NCCCNC(=O)CN2CCN(CC(=O)O)CCN(CC(=O)O)CCN(CC(=O)O)CC2)NC(=O)[C@H](Cc2c[nH]c3ccccc23)NC(=O)[C@H]([C@@H](C)O)NC1=O [3BP-3842] ({Propanoyl(3-OH)}-YCE[dP]DWLTWE(NH(CH2)3NHDOTA)C-NH2; linker 2-11 via mXylylene) | < 10 | C (t1/2 between 2.1 and 5.0 minutes) | < 10 | >95 | 
CC(C)C[C@@H]1NC(=O)[C@H](Cc2c[nH]c3ccccc23)NC(=O)[C@H](CC(=O)O)NC(=O)[C@H]2CCCN2C(=O)[C@H](CCC(=O)O)NC(=O)[C@@H](NC(=O)[C@H](Cc2ccc(O)cc2)NC(=O)CN2CCN(CC(=O)O)CCN(CC(=O)O)CCN(CC(=O)O)CC2)CSCc2cccc(c2)CSC[C@@H](C(N)=O)NC(=O)[C@H](CO)NC(=O)[C@H](Cc2c[nH]c3ccccc23)NC(=O)[C@H]([C@@H](C)O)NC1=O [3BP-3859] ({DOTA}-YCE[dP]DWLTWSC-NH2; linker 2-11 via mXylylene) | < 10 | B (t1/2 between 5.1 and 15.0 minutes) |  | >95 | 
CCCC[C@H](NC(=O)CCC(=O)NCCCOCCOCCOCCCNC(=O)CN1CCN(CC(=O)O)CCN(CC(=O)O)CCN(CC(=O)O)CC1)C(=O)N[C@@H](Cc1ccc(O)cc1)C(=O)N[C@H]1CSCc2cccc(c2)CSC[C@@H](C(N)=O)NC(=O)[C@H](CO)NC(=O)[C@H](Cc2c[nH]c3ccccc23)NC(=O)[C@H]([C@@H](C)O)NC(=O)[C@H](CC(C)C)NC(=O)[C@H](Cc2c[nH]c3ccccc23)NC(=O)[C@H](CC(=O)O)NC(=O)[C@H]2CCCN2C(=O)[C@H](CCC(=O)O)NC1=O [3BP-3870] ({X3-Suc}-[Nle]YCE[dP]DWLTWSC-NH2; linker 3-12 via mXylylene) | < 10 | B (t1/2 between 5.1 and 15.0 minutes) | < 10 | 92 | 
CC(=O)N[C@H](C(=O)N[C@@H](Cc1ccccc1)C(=O)N[C@H]1CSCc2cccc(c2)CSC[C@@H](C(N)=O)NC(=O)[C@H](CCC(=O)NCCCNC(=O)CN2CCN(CC(=O)O)CCN(CC(=O)O)CCN(CC(=O)O)CC2)NC(=O)[C@H](Cc2c[nH]c3ccccc23)NC(=O)[C@H]([C@@H](C)O)NC(=O)[C@H](CC(C)C)NC(=O)[C@H](Cc2c[nH]c3ccccc23)NC(=O)[C@H](CC(=O)O)NC(=O)[C@H]2CCCN2C(=O)[C@H](CCC(=O)O)NC1=O)C(C)C [3BP-3874] (Ac-VFCE[dP]DWLTWE(NH(CH2)3NHDOTA)C-NH2; linker 3-12 via mXylylene) | < 10 | B (t1/2 between 5.1 and 15.0 minutes) | < 10 | >95 | 
CC(C)C[C@@H]1NC(=O)[C@H](Cc2c[nH]c3ccccc23)NC(=O)[C@@H]2CCCCNC(=O)CC[C@H](NC1=O)C(=O)N[C@@H](Cc1c[nH]c3ccccc13)C(=O)N[C@@H](CO)C(=O)N[C@H](C(N)=O)CSCc1cccc(c1)CSC[C@H](NC(=O)[C@H](Cc1ccc(O)cc1)NC(=O)CN1CCN(CC(=O)O)CCN(CC(=O)O)CCN(CC(=O)O)CC1)C(=O)N[C@@H](CCC(=O)O)C(=O)N1CCC[C@@H]1C(=O)N2 [3BP-3934, DOTA-Tyr-[Cys(3MeBn)-Glu-pro-{Lys-Trp-Leu-Glu}-Trp-Ser-Cys]-NH2] ({DOTA}-YCE[dP]KWLEWSC-NH2; linker 2-11 via mXylylene; lactam 5-8) | < 10 | C (t1/2 between 2.1 and 5.0 minutes) | < 10 | >95 | 
CC(C)C[C@@H]1NC(=O)[C@H](Cc2c[nH]c3ccccc23)NC(=O)[C@H](CC(=O)O)NC(=O)[C@H]2CCCN2C(=O)[C@H](CCCN(C)C)NC(=O)[C@@H](NC(=O)[C@H](Cc2ccc(O)cc2)NC(=O)[C@@H](NC(=O)CN2CCC(NC(=O)CN3CCN(CC(=O)O)CCN(CC(=O)O)CCN(CC(=O)O)CC3)CC2)C(C)C)CSCc2cccc(c2)CSC[C@@H](C(N)=O)NC(=O)[C@H](CO)NC(=O)[C@H](Cc2c[nH]c3ccccc23)NC(=O)[C@H]([C@@H](C)O)NC1=O [3BP-4096] ({DOTA}-[X2]VYC[Orn(Me2)][dP]DWLTWSC-NH2; linker 4-13 via mXylylene) |  | B (t1/2 between 5.1 and 15.0 minutes) | < 10 | 93 | < 10
CC(C)C[C@@H]1NC(=O)[C@H](Cc2c[nH]c3ccccc23)NC(=O)[C@H](CC(=O)O)NC(=O)[C@H]2CCCN2C(=O)[C@H](CCO)NC(=O)[C@@H](NC(=O)[C@H](Cc2ccc(O)cc2)NC(=O)[C@@H](NC(=O)CN2CCC(NC(=O)CN3CCN(CC(=O)O)CCN(CC(=O)O)CCN(CC(=O)O)CC3)CC2)C(C)C)CSCc2cccc(c2)CSC[C@@H](C(N)=O)NC(=O)[C@H](CO)NC(=O)[C@H](Cc2c[nH]c3ccccc23)NC(=O)[C@H]([C@@H](C)O)NC1=O [3BP-4101] ({DOTA}-[X2]VYC[hSer][dP]DWLTWSC-NH2; linker 4-13 via mXylylene) |  | B (t1/2 between 5.1 and 15.0 minutes) | < 10 | 93 | < 10
CC(C)C[C@@H]1NC(=O)[C@H](Cc2c[nH]c3ccccc23)NC(=O)[C@H](CC(N)=O)NC(=O)[C@H]2CCCN2C(=O)[C@H](CCC(=O)O)NC(=O)[C@@H](NC(=O)[C@H](Cc2ccc(O)cc2)NC(=O)[C@@H](NC(=O)CN2CCC(NC(=O)CN3CCN(CC(=O)O)CCN(CC(=O)O)CCN(CC(=O)O)CC3)CC2)C(C)C)CSCc2cccc(c2)CSC[C@@H](C(N)=O)NC(=O)[C@H](CO)NC(=O)[C@H](Cc2c[nH]c3ccccc23)NC(=O)[C@H]([C@@H](C)O)NC1=O [3BP-4103] ({DOTA}-[X2]VYCE[dP]NWLTWSC-NH2; linker 4-13 via mXylylene) |  | A (t1/2>15.0 minutes) | < 10 | 81 | < 10
CC(C)C[C@@H]1NC(=O)[C@H](Cc2c[nH]c3ccccc23)NC(=O)[C@H](CC(=O)O)NC(=O)[C@H]2CCCN2C(=O)[C@H](CCC(=O)O)NC(=O)[C@@H](NC(=O)[C@H](CCC(=O)NC[C@H](O)[C@@H](O)[C@H](O)[C@H](O)CO)NC(=O)[C@@H](NC(=O)CN2CCC(NC(=O)CN3CCN(CC(=O)O)CCN(CC(=O)O)CCN(CC(=O)O)CC3)CC2)C(C)C)CSCc2cccc(c2)CSC[C@@H](C(N)=O)NC(=O)[C@H](CO)NC(=O)[C@H](Cc2c[nH]c3ccccc23)NC(=O)[C@H]([C@@H](C)O)NC1=O [3BP-4112] ({DOTA}-[X2]VE(NH(1-deoxy-D-glucityl))CE[dP]DWLTWSC-NH2; linker 4-13 via mXylylene) |  | B (t1/2 between 5.1 and 15.0 minutes) | < 10 | >95 | < 10
CC(C)C[C@@H]1NC(=O)[C@H](Cc2c[nH]c3ccccc23)NC(=O)[C@H](CSCc2ccccc2)NC(=O)[C@H]2CCCN2C(=O)[C@H](CCC(=O)O)NC(=O)[C@@H](NC(=O)[C@H](Cc2ccc(O)cc2)NC(=O)[C@@H](NC(=O)CN2CCC(NC(=O)CN3CCN(CC(=O)O)CCN(CC(=O)O)CCN(CC(=O)O)CC3)CC2)C(C)C)CSCc2cccc(c2)CSC[C@@H](C(N)=O)NC(=O)[C@H](CO)NC(=O)[C@H](Cc2c[nH]c3ccccc23)NC(=O)[C@H]([C@@H](C)O)NC1=O [3BP-4128] ({DOTA}-[X2]VYCE[dP]C(Bn)WLTWSC-NH2; linker 4-13 via mXylylene) |  | A (t1/2>15.0 minutes) | < 10 | 87 | < 10
CC(C)C[C@@H]1NC(=O)[C@H](Cc2ccc(Cl)c(Cl)c2)NC(=O)[C@H](CC(=O)O)NC(=O)[C@H]2CCCN2C(=O)[C@H](CCC(=O)O)NC(=O)[C@@H](NC(=O)[C@H](Cc2ccc(O)cc2)NC(=O)[C@@H](NC(=O)CN2CCC(NC(=O)CN3CCN(CC(=O)O)CCN(CC(=O)O)CCN(CC(=O)O)CC3)CC2)C(C)C)CSCc2cccc(c2)CSC[C@@H](C(N)=O)NC(=O)[C@H](CO)NC(=O)[C@H](Cc2c[nH]c3ccccc23)NC(=O)[C@H]([C@@H](C)O)NC1=O [3BP-4133] ({DOTA}-[X2]VYCE[dP]D[Phe(3,4-Cl2)]LTWSC-NH2; linker 4-13 via mXylylene) |  | B (t1/2 between 5.1 and 15.0 minutes) | < 10 | >95 | < 10
CC(C)[C@H](NC(=O)CN1CCC(NC(=O)CN2CCN(CC(=O)O)CCN(CC(=O)O)CCN(CC(=O)O)CC2)CC1)C(=O)N[C@@H](Cc1ccc(O)cc1)C(=O)N[C@H]1CSCc2cccc(c2)CSC[C@@H](C(N)=O)NC(=O)[C@H](CO)NC(=O)[C@H](Cc2c[nH]c3ccccc23)NC(=O)[C@H]([C@@H](C)O)NC(=O)[C@H](CC(C)(C)C)NC(=O)[C@H](Cc2c[nH]c3ccccc23)NC(=O)[C@H](CC(=O)O)NC(=O)[C@H]2CCCN2C(=O)[C@H](CCC(=O)O)NC1=O [3BP-4142] ({DOTA}-[X2]VYCE[dP]DW[tBuAla]TWSC-NH2; linker 4-13 via mXylylene) |  | A (t1/2>15.0 minutes) | < 10 | 91 | < 10

Source: patent US20250339569A1, “CARBONIC ANHYDRASE IX LIGANDS” (priority 2021, published 2025)
